Assay results from ChEMBL document CHEMBL1201862, “PubChem BioAssay data set” (2004).
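In this assay, cells in 96-well plates receive the compound at five concentrations for 48 hours. Endpoints are linearly interpolated between the surrounding concentrations. GI50 = concentration required for 50% inhibition of growth.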 Active and inactive are the calls of the source. No stated cut-off is given here; in the data, active = GI50 up to about 1.1 µM and inactive = higher.

Key:
Assay in all cases: growth of human tumour cells (NCI), 48 h
[1] = test system: 786-0
[2] = test system: BT-549
[3] = test system: CAKI-1
[4] = test system: CCRF-CEM
[5] = test system: COLO 205
[6] = test system: DU-145
[7] = test system: EKVX
[8] = test system: HCC 2998
[9] = test system: HCT-116
[10] = test system: HCT-15
[11] = test system: HL-60
[12] = test system: HOP-92
[13] = test system: HT-29
[14] = test system: M14
[15] = test system: MCF7
[16] = test system: NCI-H522
[17] = test system: OVCAR-5
[18] = test system: SF-268
[19] = test system: T47D
[20] = test system: UACC-62

SMILES | GI50 [1] | GI50 [2] | GI50 [3] | GI50 [4] | GI50 [5] | GI50 [6] | GI50 [7] | GI50 [8] | GI50 [9] | GI50 [10] | GI50 [11] | GI50 [12] | GI50 [13] | GI50 [14] | GI50 [15] | GI50 [16] | GI50 [17] | GI50 [18] | GI50 [19] | GI50 [20]
Clc1ccc2ns[s+]c2c1 | 53.8 µM (inactive) | 16.3 µM (inactive) | 1.63 µM (inactive) | 1.27 µM (inactive) | 1.79 µM (inactive) | 8.79 µM (inactive) | 17.7 µM (inactive) | 17.5 µM (inactive) | 1.03 µM (active) | 0.33 µM | 1.09 µM (active) | 22.5 µM (inactive) | 3.39 µM (inactive) | 0.222 µM (active) | 3.33 µM (inactive) | 11.1 µM (inactive) | 6.58 µM (inactive) | 11.3 µM (inactive) | 11.7 µM (inactive) | 0.275 µM (active)
CCOC(=O)CO/N=C1/C(=C2/C(=O)Nc3ccccc32)Nc2ccccc21 | 7.5 µM (inactive) | 78.3 µM (inactive) | 20.1 µM (inactive) | > 100 µM (inactive) | > 100 µM (inactive) | > 100 µM (inactive) | 13.4 µM (inactive) | > 100 µM (inactive) | 5.12 µM (inactive) | 81.7 µM | > 100 µM (inactive) | 16.9 µM (inactive) | > 100 µM (inactive) | > 100 µM (inactive) | 50.1 µM (inactive) | > 100 µM (inactive) | > 100 µM (inactive) | 27 µM (inactive) | 2.29 µM (inactive) | 48.6 µM (inactive)
C=CC/C=C/Cc1csc(C(C)(C)C(O)C/C=C/C(=C)CCNC(=O)OC)n1 (stereo not given) | > 100 µM (inactive) | 3.33 µM (inactive) | > 67 µM (inactive) | 34.9 µM (inactive) | 59.7 µM (inactive) | > 100 µM (inactive) | 27.9 µM (inactive) | > 95.3 µM (inactive) | 0.679 µM (active) | 44.1 µM | 9.71 µM (inactive) | 20.6 µM (inactive) | 48.8 µM (inactive) | 43.5 µM (inactive) | 96.2 µM (inactive) | 19.1 µM (inactive) | > 100 µM (inactive) | 80.4 µM (inactive) | > 100 µM (inactive) | 44.4 µM (inactive)
NC(=O)NO [HYDROXYUREA] | 303 µM (inactive) | 1660 µM (inactive) | 270 µM (inactive) | 50.4 µM (inactive) | 1740 µM (inactive) | 818 µM (inactive) | 1790 µM (inactive) | 679 µM (inactive) | 995 µM (inactive) | 871 µM | 18.4 µM (inactive) | 895 µM (inactive) | 605 µM (inactive) | 597 µM (inactive) | 385 µM (inactive) | 729 µM (inactive) | 601 µM (inactive) | 524 µM (inactive) | 1490 µM (inactive) | 291 µM (inactive)
Cc1cccc(C)c1NC(=O)/C(Cl)=C(/Cl)C(=O)O | 17.1 µM (inactive) | 17.6 µM (inactive) | 7.66 µM (inactive) | 2.95 µM (inactive) | 7.11 µM (inactive) | 26.5 µM (inactive) | 19.5 µM (inactive) | 18 µM (inactive) | 21.1 µM (inactive) | 16.2 µM | 2.63 µM (inactive) | 15.5 µM (inactive) | 17.5 µM (inactive) | 9.29 µM (inactive) | 20.8 µM (inactive) | 4.33 µM (inactive) | 20.4 µM (inactive) | 17.2 µM (inactive) | 27.9 µM (inactive) | 13.7 µM (inactive)
CC(C#N)(c1ccccc1)N(CCc1ccccc1)C(=O)Oc1ccccc1 (stereo not given) | 40.6 µM (inactive) | > 100 µM (inactive) | > 100 µM (inactive) | > 100 µM (inactive) | > 100 µM (inactive) | > 100 µM (inactive) | > 100 µM (inactive) | > 100 µM (inactive) | > 100 µM (inactive) | > 100 µM | > 100 µM (inactive) | 10.9 µM (inactive) | > 100 µM (inactive) | > 100 µM (inactive) | > 100 µM (inactive) | > 100 µM (inactive) | > 100 µM (inactive) | > 100 µM (inactive) | > 100 µM (inactive) | > 100 µM (inactive)
COc1ccc2c(=O)c(-c3cc4c(cc3OC)OCO4)coc2c1 | 60.1 µM (inactive) | > 100 µM (inactive) | 51.8 µM (inactive) | > 100 µM (inactive) | > 100 µM (inactive) | > 100 µM (inactive) | > 100 µM (inactive) | > 100 µM (inactive) | > 100 µM (inactive) | > 100 µM | > 100 µM (inactive) | 32.9 µM (inactive) | > 100 µM (inactive) | > 100 µM (inactive) | 97.3 µM (inactive) | > 100 µM (inactive) | > 100 µM (inactive) | 72.8 µM (inactive) | > 100 µM (inactive) | > 100 µM (inactive)
COc1ccc2c(c1)C(=O)C(=O)c1cc(O)c(OC)c(OC)c1-2 | 0.836 µM (active) | 0.718 µM (active) | 0.918 µM (active) | 0.791 µM (active) | 1.31 µM (inactive) | 0.918 µM (active) | 0.979 µM (active) | 4.55 µM (inactive) | 0.813 µM (active) | 0.91 µM | 0.104 µM (active) | 0.875 µM (active) | 1.32 µM (inactive) | 0.933 µM (active) | 0.902 µM (active) | 0.927 µM (active) | 1.12 µM (inactive) | 1 µM (active) | 1.13 µM (inactive) | 0.849 µM (active)
O=C(O)CCc1nc2c(n1Cc1ccccc1)C(=O)c1ccccc1C2=O | > 100 µM (inactive) | > 100 µM (inactive) | > 100 µM (inactive) | 76.7 µM (inactive) | 33.9 µM (inactive) | > 100 µM (inactive) | 78.2 µM (inactive) | > 100 µM (inactive) | 36.3 µM (inactive) | 48.8 µM | 64 µM (inactive) | 5.45 µM (inactive) | 42 µM (inactive) | 21.4 µM (inactive) | 43.8 µM (inactive) | 24.3 µM (inactive) | > 100 µM (inactive) | 60.5 µM (inactive) | 52 µM (inactive) | 38 µM (inactive)
O=C(O)C1CSC2(CCCN(Cc3ccccc3)C2)N1 (stereo not given) | > 100 µM (inactive) | > 100 µM (inactive) | > 100 µM (inactive) | 23.4 µM (inactive) | > 100 µM (inactive) | > 100 µM (inactive) | > 100 µM (inactive) | > 100 µM (inactive) | > 100 µM (inactive) | > 100 µM | > 100 µM (inactive) | > 100 µM (inactive) | > 100 µM (inactive) | > 100 µM (inactive) | > 100 µM (inactive) | > 100 µM (inactive) | > 100 µM (inactive) | > 100 µM (inactive) | > 100 µM (inactive) | > 100 µM (inactive)
N=C(N)NS(=O)(=O)c1ccc(NC(=O)c2cccc3c(NNc4ccc(S(=O)(=O)N=C(N)N)cc4)c4ccccc4nc23)cc1 | 44.2 µM (inactive) | 33.3 µM (inactive) | > 100 µM (inactive) | 19.3 µM (inactive) | 92.7 µM (inactive) | > 100 µM (inactive) | 30.8 µM (inactive) | 90.6 µM (inactive) | 35.7 µM (inactive) | 37.8 µM | 35.5 µM (inactive) | 47.4 µM (inactive) | 31.1 µM (inactive) | > 100 µM (inactive) | 29.9 µM (inactive) | 25.6 µM (inactive) | > 100 µM (inactive) | 61.9 µM (inactive) | 22.6 µM (inactive) | 46.9 µM (inactive)
O=C(/C=C(\Nc1ccccc1O)c1ccc(Br)cc1)C(Cl)(Cl)Cl | 14.4 µM (inactive) | 15 µM (inactive) | 6.3 µM (inactive) | 15.4 µM (inactive) | 6.95 µM (inactive) | 3.03 µM (inactive) | 3.21 µM (inactive) | 2.1 µM (inactive) | 10.5 µM (inactive) | 12.2 µM | 2.36 µM (inactive) | 2.6 µM (inactive) | 6.43 µM (inactive) | 15.5 µM (inactive) | 5.21 µM (inactive) | 14.9 µM (inactive) | 12.1 µM (inactive) | 11.7 µM (inactive) | 3.95 µM (inactive) | 13.3 µM (inactive)
COc1cc(/C=C2/C[C@H]3[C@@H]4CCC5=CC(=O)CC[C@]5(C)[C@H]4CC[C@]3(C)NC2=O)cc(OC)c1OC | 48.6 µM (inactive) | 21.6 µM (inactive) | 25.9 µM (inactive) | 20.8 µM (inactive) | 18.5 µM (inactive) | 21 µM (inactive) | 24.5 µM (inactive) | 21.1 µM (inactive) | 26.2 µM (inactive) | 21.5 µM | 13.2 µM (inactive) | 11.2 µM (inactive) | 19.3 µM (inactive) | 27.4 µM (inactive) | 17.3 µM (inactive) | 14.1 µM (inactive) | 13.1 µM (inactive) | 26.3 µM (inactive) | 13 µM (inactive) | 23.1 µM (inactive)
C[C@@]12C(=O)OC(=O)[C@]1(C)[C@H]1CC[C@@H]2O1 [CANTHARIDIN] | 1.74 µM (inactive) | 1.7 µM (inactive) | 0.791 µM (active) | 1.19 µM (inactive) | 0.427 µM (active) | 1.02 µM (active) | 0.45 µM (active) | 1.53 µM (inactive) | 1.98 µM (inactive) | 4.06 µM | 1.63 µM (inactive) | 0.61 µM (active) | 1.66 µM (inactive) | 1.7 µM (inactive) | 7.76 µM (inactive) | 0.935 µM (active) | 2.45 µM (inactive) | 1.77 µM (inactive) | 1.68 µM (inactive) | 2.12 µM (inactive)
